This note sets out measurements from article PMC6723808, “New Benzofuranoids and Phenylpropanoids from the Mangrove Endophytic Fungus, Aspergillus sp. ZJ-68” (Marine Drugs, 2019).

In brackets after ≈: the same amount, converted by molar mass.

Assay in all cases: Antibacterial assay, MIC by continuous dilution method in 96-well plates
For assay [1], the system named is P. aeruginosa (ATCC 27853). The class given is cell-based. The settings on record: Pseudomonas aeruginosa, ATCC27853, read-out: MIC (μg/mL) P. aeruginosa. As for the experimental part:
(§1) Two Gram-positive bacteria B. subtilis (ATCC 6633) and S. aureus (ATCC 25923), and two Gram-negative bacteria E. coli (ATCC 25922) and P. aeruginosa (ATCC 27853) were used. The antibacterial assay and the determination of the MIC were assessed according to continuous dilution method in 96-well plates which has been described in our published paper. The tested substances were dissolved in DMSO and ciprofloxacin was the positive control.

The test system of a further assay is B. subtilis (ATCC 6633). In kind it is cell-based, Bacillus subtilis. The settings on record: for MIC: Bacillus subtilis, ATCC6633, B. subtilis ATCC 6633, read-out: MIC (μg/mL) B. subtilis. As for the experimental part: as §1
Another assay relates to S. aureus (ATCC 25923). In kind it is cell-based, Staphylococcus aureus. The settings on record: for MIC: Staphylococcus aureus, ATCC25923, S. aureus ATCC 25923, read-out: MIC (μg/mL) S. aureus. As for the experimental part:
as §1

The next assay concerns E. coli (ATCC 25922). In kind it is cell-based, Escherichia coli. To be noted: for MIC: Escherichia coli, ATCC25922, E. coli ATCC 25922, read-out: MIC (μg/mL) E. coli. As for the experimental part: as §1

Regarding `CCCc1ccc(O)c(O)c1CO` [Compound 6, Asperpanoid A], the MIC (in assay [1]; in the assay with B. subtilis (ATCC 6633); in the assay on S. aureus (ATCC 25923); in the assay with E. coli (ATCC 25922)) was above 100 µg/mL throughout.

Consider `CCCc1cccc(O)c1CO` [Compound 8, 2-(hydroxymethyl)-3-propylphenol], for which the MIC in assay [1] was above 100 µg/mL; with B. subtilis (ATCC 6633) it was 4.15 to 12.5 µg/mL (≈ 25 to 75.2 µM); in the assay on S. aureus (ATCC 25923), 4.15 to 12.5 µg/mL (≈ 25 to 75.2 µM); in the assay with E. coli (ATCC 25922), 4.15 to 12.5 µg/mL (≈ 25 to 75.2 µM). Moreover, the “MIC (μg/mL) B. subtilis” value in the assay with B. subtilis (ATCC 6633) (B. subtilis ATCC 6633) was 8.3 ± 1.1 µg/mL (≈ 49.9 µM). Also, in the assay on S. aureus (ATCC 25923) (S. aureus ATCC 25923), the “MIC (μg/mL) S. aureus” value came out at 4.15 ± 1.12 µg/mL (≈ 25 µM). Moreover, the “MIC (μg/mL) E. coli” value in the assay on E. coli (ATCC 25922) (E. coli ATCC 25922) is 8.3 ± 1.0 µg/mL (≈ 49.9 µM).

`CCCc1ccc2c(c1CO)O[C@@H](C(C)(C)O)C2` [Compound 11, (−)-brassicadiol]: the MIC in assay [1] was above 100 µg/mL.

In the case of `CC(C)=C1Oc2c(ccc3c2[C@@H](O)O[C@H](C)C3)C1=O` [Compound 12, (+)-pseudodeflectusin], the MIC (in assay [1]; in the assay with B. subtilis (ATCC 6633); in the assay on S. aureus (ATCC 25923); in the assay with E. coli (ATCC 25922)) was above 100 µg/mL throughout.

Take `CC(C)=C1Oc2c(ccc(CC(C)O)c2CO)C1=O` (stereo not drawn) [Compound 14, ustusorane A]: the MIC (in assay [1]; with B. subtilis (ATCC 6633); in the assay with S. aureus (ATCC 25923); with E. coli (ATCC 25922)) was above 100 µg/mL throughout.

As for `O=C(O)c1cn(C2CC2)c2cc(N3CCNCC3)c(F)cc2c1=O` [ciprofloxacin, reference compound], the MIC in assay [1] was found to be 2.5 ± 1.2 µg/mL (≈ 7.54 µM); in the assay with B. subtilis (ATCC 6633), 2.5 ± 1.1 µg/mL (≈ 7.54 µM); in the assay on S. aureus (ATCC 25923) it was 1.25 ± 1.1 µg/mL (≈ 3.77 µM); in the assay on E. coli (ATCC 25922), 1.25 ± 1.12 µg/mL (≈ 3.77 µM).
